Test results as given in article PMC5587747, “A natural chalcone induces apoptosis in lung cancer cells: 3D-QSAR, docking and an in vivo/vitro assay” (Scientific Reports, 2017).
Values after ≈ are worked out from the molar mass of the structure shown. Like-named read-outs stand apart in the source and are kept apart here.

How the values were obtained:
H1944 = assay: MTT cytotoxicity assay, H1944 cells; assay type: cell-based, human; details: Homo sapiens, NCI-H1944, lonchocarpin 100 μM, read-out: inhibition rate (IR %)
Method: (§1) The cytotoxicities of the tested flavonoids were assayed in ten human lung cancer cell lines (A549, H226, H358, H522, H292, H1944, H460, H1792, SW1573, and Calu-1) using MTT reduction assay. Cisplatin (DDP) was selected as a positive control. Compounds 1–37 were dissolved in DMSO to obtain a clear solution of 1 M, which was diluted to 400 mM, 200 mM, 100 mM, 75 mM, 50 mM, 37.5 mM, 25 mM, 10 mM and 1 mM respectively as stock solutions. The DMSO concentration in the medium was kept below 0.10%. Moreover, the stability of tested compounds in experimental buffer was confirmed at 24 h and 48 h respectively by means of HPLC analysis. Then the human lung cancer cells were placed in 96-well culture plates (5 × 10^4 cells/well) and incubated for 24 h. Then, the cells were pretreated with different concentrations of test samples (gradient concentrations 1.0, 10.0, 25.0, 37.5, 50, 75, 100, 200, 400, 1000 μM for compounds 1–37 and DDP) for 48 h. And cell growth was measured by MTT assays. The cytotoxicities against the lung cancer cells were determined systematically and expressed as IC50 value.

H292 cells [1] = assay: MTT cytotoxicity assay, H292 cells; assay type: cell-based, human; details: Homo sapiens, NCI-H292; for IC50: H292 cells
Method: as §1

[2] = tested on: Bcl-2, Bax, procaspase-3, cleaved caspase-3, cytochrome c, caspase-9 in H292 cells; assay: Western blotting of apoptosis-related proteins; assay type: cell-based, human; details: H292, 20 μM
Method: Western blotting was performed according to the method described in previous research. […] Then, the cells were harvested and then washed with PBS and lysed in a radio immune-precipitation assay buffer for 30 min. BCA protein assay kit (Byontime, Beijing, China) was used for determination of the total protein contents. And the protein samples were dissolved and seperated on 10% SDS-PAGE gels. After that the proteins were transferred to PVDF (polyvinylidene fluoride) (Bio-Rad, Hercules, CA) membranes and incubated sequentially with blocking buffer, primary antibodies, and horseradish peroxidase-conjugated secondary antibodies.

Vero cells = assay: Cytotoxicity in Vero cells; assay type: cell-based; details: at 1000 μM
H226 = assay: MTT cytotoxicity assay, H226 cells; assay type: cell-based, human; details: Homo sapiens, NCI-H226, lonchocarpin 100 μM, read-out: inhibition rate (IR %)
Method: as §1

S180-bearing mice = assay: In vivo antitumor activity in S180 implanted mice; details: 12 days; for Tumor weight/g: mean ± SE
Method: The animal experiments were carried out according to the National Institute of Health Guide for the Care and Use of Laboratory Animals. And the use of experimental animals was approved by the Animal Ethics Committee of Shenyang Pharmaceutical University. Male Kunming mice, were housed in separate cages under standard conditions (20–24 °C), relative humidity (55% ± 5%) and a 12 h light/12 h dark cycle, and allowed to acclimatize for 3 days prior to the start of experiment. Cultured S180 cells were harvested and washed with sterilized PBS (pH 7.2) three times and resuspended at a density of 6 × 10^6 cells/ml. Mice received subcutaneous implants of 0.2 mL/mouse on the right flank by means of hypodermic injection. Then the mice were divided randomly into 5 groups, including model, positive control and treatment groups with 10 mice in each group after inoculation for 24 h. […] Both groups received oral administrations via an intubation needle every day. […] The weight of the mice was recorded every day throughout the experiment. Finally, the mice were sacrificed by cervical dislocation just 2 h after the last administration. Then the tumor and spleen tissues were harvested and weighed immediately. After that the in vivo tumor inhibition ratio was calculated as: Inhibition ratio (%) = 100((A−B)/A), in which A represents the average tumor weight of the control group and B is recorded as the tumor weight of the administration group. Then, the spleen index was recorded using the following formula:
Spleen index = the final weight of spleen (mg)/the final average body weight (g) without tumor.

Calu-1 = assay: MTT cytotoxicity assay, Calu-1 cells; assay type: cell-based, human; details: Homo sapiens, lonchocarpin 100 μM, read-out: inhibition rate (IR %)
Method: as §1

H522 = assay: MTT cytotoxicity assay, H522 cells; assay type: cell-based, human; details: Homo sapiens, NCI-H522, lonchocarpin 100 μM, read-out: inhibition rate (IR %)
Method: as §1

H358 = assay: MTT cytotoxicity assay, H358 cells; assay type: cell-based, human; details: Homo sapiens, NCI-H358, lonchocarpin 100 μM, read-out: inhibition rate (IR %)
Method: as §1

A549 = assay: MTT cytotoxicity assay, A549 cells; assay type: cell-based, human; details: Homo sapiens, lonchocarpin 100 μM, read-out: inhibition rate (IR %)
Method: as §1

H460 = assay: MTT cytotoxicity assay, H460 cells; assay type: cell-based, human; details: Homo sapiens, NCI-H460, lonchocarpin 100 μM, read-out: inhibition rate (IR %)
Method: as §1

H292 cells [3] = assay: Annexin V/PI apoptosis assay by flow cytometry; assay type: cell-based, human; details: H292, 20 μM
Method: Cell apoptosis was evaluated by Annexin V/PI staining assay and analyzed using an apoptosis detection kit (Keygen, Nanjing, China)[37]. Briefly, H292 cells were cultured at the density of 1 × 10^6 cells/well. […] Both attached and floating cells were harvested at the arranged time point, and washed twice with ice-cold PBS, then resuspended in 100 μL binding buffer with Annexin V and PI for 15 min at 37 °C in darkness. Finally, the treated cells were analyzed by flow cytometry (Becton Dickinson, Franklin Lakes, NJ, USA) and Cell Quest software. The apoptosis rate was given by the following formula:
Apoptosis rate % = (number of apoptotic cells)/(number of total cells observed) × 100%.

H1792 = assay: MTT cytotoxicity assay, H1792 cells; assay type: cell-based, human; details: Homo sapiens, NCI-H1792, lonchocarpin 100 μM, read-out: inhibition rate (IR %)
Method: as §1

CEM leukaemic cell line = tested on: CEM leukaemic cell line; design: method as in PMID 12601679; details: cited from earlier work
SW1573 = assay: MTT cytotoxicity assay, SW1573 cells; assay type: cell-based, human; details: Homo sapiens, lonchocarpin 100 μM, read-out: inhibition rate (IR %)
Method: as §1

SMILES: CC1(C)C=Cc2c(ccc(C(=O)/C=C/c3ccccc3)c2O)O1 [Compound 34, lonchocarpin]
- inhibition at 100 µM (H1944): 69.2%
- inhibition at 100 µM (H292 cells [1]; H292, lonchocarpin 100 μM, read-out: inhibition rate (IR %)): 97.5%
- IC50 (H292 cells [1]; MTT, 48 h, read-out: IC50): 10 µM
- IC50 (H292 cells [1]; Table S2, read-out: pIC50 (converted)): 10 µM
- Bax protein expression [2]: up-regulation
- caspase-9 [2]: activation
- cytochrome c protein expression [2]: up-regulation
- procaspase-3 protein expression [2]: reduction
- Bcl-2 protein expression ([2]; 24 h and 48 h): obviously down-regulated
- cleaved caspase-3 protein expression ([2]; 48 h): significantly increased
- cytotoxicity in Vero cells (Vero cells; listed as Lonchocarpin): no cytotoxicity
- cytotoxicity in Vero cells (Vero cells; listed as lonchocarpin): no toxicity
- inhibition at 100 µM (H226): 62%
- Body weight/g After experiment (S180-bearing mice; 25 mg/kg oral daily): 26.45 ± 0.68 g
- Body weight/g Before experiment (S180-bearing mice; 25 mg/kg oral daily): 39.19 ± 2.15 g
- Inhibitory rate (%) (S180-bearing mice; 25 mg/kg oral daily): 57.94%
- Spleen index (S180-bearing mice; 25 mg/kg oral daily): 3.08 mg/g
- Tumor weight/g (S180-bearing mice; 25 mg/kg oral daily): 3.39 ± 0.69 g
- Body weight/g After experiment (S180-bearing mice; 50 mg/kg oral daily): 28.99 ± 0.47 g
- Body weight/g Before experiment (S180-bearing mice; 50 mg/kg oral daily): 36.48 ± 1.38 g
- Inhibitory rate (%) (S180-bearing mice; 50 mg/kg oral daily): 63.40%
- Spleen index (S180-bearing mice; 50 mg/kg oral daily): 3.17 mg/g
- Tumor weight/g (S180-bearing mice; 50 mg/kg oral daily): 2.95 ± 0.66 g
- Body weight/g After experiment (S180-bearing mice; 100 mg/kg oral daily): 28.21 ± 1.98 g
- Body weight/g Before experiment (S180-bearing mice; 100 mg/kg oral daily): 38.71 ± 2.20 g
- Inhibitory rate (%) (S180-bearing mice; 100 mg/kg oral daily): 72.51%
- Spleen index (S180-bearing mice; 100 mg/kg oral daily): 3.30 mg/g
- Tumor weight/g (S180-bearing mice; 100 mg/kg oral daily): 2.21 ± 0.72 g
- inhibition at 100 µM (Calu-1): 23.8%
- inhibition at 100 µM (H522): 63%
- inhibition at 100 µM (H358): 51.3%
- inhibition at 100 µM (A549): 42.3%
- inhibition at 100 µM (H460): 76.3%
- early apoptosis (lower right quadrant) (H292 cells [3]; 12 h): 7.2%
- late apoptosis (upper right quadrant) (H292 cells [3]; 12 h): 3.9%
- apoptosis (H292 cells [3]; 24 h): about 41.1%
- apoptosis (H292 cells [3]; 48 h): ~47.9%
- inhibition at 100 µM (H1792): 46.7%
- IC50 (CEM leukaemic cell line): 10.4 mg/L (≈ 33.9 µM)
- inhibition at 100 µM (SW1573): 92.3%
